Assay results from publication PMC12621200, “Giving an Enzyme Scissors: Serotonin Derivatives as Potent Organocatalytic Switches for DNA Repair Enzyme OGG1” (Journal of Medicinal Chemistry, 2025).

Experiments:
OGG1 = molecular target: T1, OGG1 (Homo sapiens, UniProt O15527); test: Biochemical fluorescence (fluorophore-quencher) assay of OGG1 incision rate, 8-oxoA substrate; settings: for AC50 (μM): biochemical assay of virtual screening hits (NCI samples), Table S1
T1 construct: made in house

NUDT15 = molecular target: T2, NUDT15 (Homo sapiens, UniProt Q9NV35); parameters: method as in Hank et al. 1 and Kehler et al. 2; settings: reference compound; ref Hank et al. 1 and Kehler et al. 2; cited from earlier work
T2 construct: made in house
T2 sequence (Q9NV35 1-164): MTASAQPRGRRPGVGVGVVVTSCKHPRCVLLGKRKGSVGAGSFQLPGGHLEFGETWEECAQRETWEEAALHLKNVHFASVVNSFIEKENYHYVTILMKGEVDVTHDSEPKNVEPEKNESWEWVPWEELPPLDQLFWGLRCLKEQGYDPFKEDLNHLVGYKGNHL

NUDT5 = molecular target: T3, NUDT5 (Homo sapiens, UniProt Q9UKK9); parameters: method as in Hank et al. 1 and Kehler et al. 2; settings: reference compound; ref Hank et al. 1 and Kehler et al. 2; cited from earlier work
T3 construct: made in house

T1 sequence (O15527 whole entry): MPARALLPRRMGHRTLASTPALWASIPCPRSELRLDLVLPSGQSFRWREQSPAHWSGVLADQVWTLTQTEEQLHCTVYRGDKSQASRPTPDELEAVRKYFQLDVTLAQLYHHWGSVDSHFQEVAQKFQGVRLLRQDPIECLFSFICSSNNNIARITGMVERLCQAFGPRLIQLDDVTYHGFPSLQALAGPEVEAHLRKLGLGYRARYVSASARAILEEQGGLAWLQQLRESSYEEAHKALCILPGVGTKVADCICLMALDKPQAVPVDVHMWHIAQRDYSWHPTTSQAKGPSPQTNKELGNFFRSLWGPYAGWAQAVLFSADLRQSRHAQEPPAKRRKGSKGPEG

With `NC(=O)C1CCCN(C(=O)Nc2ccccc2F)C1` (stereo not shown) [NSC 213798] the “AC50 (μM)” value (OGG1) was “inactive”.

In the case of `COc1cc(OC)c(NC(=O)CC2SC(N)=NC2=O)cc1Cl` (stereo not shown) [NSC 247010], the “AC50 (μM)” value (OGG1) is reported as “inactive”.

With `CC1=CC2C(c3ccccc3)Nc3ccccc3N2C1=O` (stereo not shown) [NSC 263759] the “AC50 (μM)” value (OGG1) was “inactive”.

In the case of `O=C1c2ccccc2C(O)N1CCc1c[nH]c2ccccc12` (stereo not shown) [NSC 338155], the “AC50 (μM)” value (OGG1) is reported as “inactive”.

With `CNC1NC(=O)c2ccccc2N1Cc1ccc(F)cc1` (stereo not shown) [NSC 364164] the “AC50 (μM)” value (OGG1) was “inactive”.

In the case of `CCOC(=O)c1ccc2c(c1)NCc1cccc(OC)c1O2` [NSC 364889], the “AC50 (μM)” value (OGG1) is reported as “inactive”.

For `Cl.NCCc1c[nH]c2ccccc12` [NSC 522258], the “AC50 (μM)” value (OGG1) was “inactive”.

In the case of `CC1CC2=C(C(=O)O1)C(c1ccccc1)Nc1ccccc1N2` (stereo not shown) [NSC 637579], the “AC50 (μM)” value (OGG1) is reported as “inactive”.

With `CC(=O)C1CC(C)=CCC12C(=O)Nc1ccccc12` (stereo not shown) [NSC 642717] the “AC50 (μM)” value (OGG1) was “inactive”.

For `O=C1Nc2ccccc2C12CCNC2Cc1ccccc1` (stereo not shown) [NSC 643518], the “AC50 (μM)” value (OGG1) was “weak”.

With `c1ccc(C2Nc3ccccc3C3OCCCC23)cc1` (stereo not shown) [NSC 645796] the “AC50 (μM)” value (OGG1) was “inactive”.

With `COc1ccccc1N1C(=O)CSC1c1c[nH]c2ccccc12` (stereo not shown) [NSC 655348] the “AC50 (μM)” value (OGG1) was “inactive”.

In the case of `CC(=O)N1C(C(=O)NC2CCCCC2)CSC1c1ccccc1` (stereo not shown) [NSC 669300], the “AC50 (μM)” value (OGG1) is reported as “inactive”.

With `O=C(NCCc1c(-c2ccccc2)[nH]c2ccccc12)C(F)(F)F` [NSC 674639] the “AC50 (μM)” value (OGG1) was “inactive”.

In the case of `O=C(c1ccc2[nH]ccc2c1)N1CCN(S(=O)(=O)c2ccc3[nH]c(=O)oc3c2)CC1` [TH1760], the Reference inhibition (NUDT15) is given as 96%.

For `Cn1c(=O)c2c(nc(N3CCNCC3)n2Cc2nnc(-c3ccc(Cl)c(Cl)c3)o2)n(C)c1=O` [TH5427], the Reference inhibition (NUDT5) is listed as 99%.

For `CN(C)Cc1c(-c2ccccc2)[nH]c2ccccc12` [TH12166], the “OGG1 activation, SAR result in words” value (OGG1) was “inhibited activity”, the “AC50 (μM)” value (OGG1) was “inactive” and the IC50 (OGG1; inhibition of OGG1) was 15.5 µM.
